From the kinase profiling compilation of Christmann-Franck et al. (2016)
Several values for one entry are separate records, joined by “and”; a condition that tells them apart may be missing. Equal entries are not always repeated.

What was measured:
Assay in all cases: radiometric filter-binding kinase assay, Kinase HotSpot
Conditions in all cases: compound 0.5 µM; ATP 10 µM
[1] = target: MAP3K10 (human) (UniProt Q02779)
[2] = target: RET (human) (UniProt P07949)
[3] = target: CDK3 CCNE1 (human) (UniProt Q00526+P24864)
[4] = target: PLK3 (human) (UniProt Q9H4B4)
[5] = target: ACVR1 (human) (UniProt Q04771)
[6] = target: ERBB2 (human) (UniProt P04626)
[7] = target: NTRK3 (human) (UniProt Q16288)
[8] = target: PAK4 (human) (UniProt O96013)
[9] = target: CLK2 (human) (UniProt P49760)
[10] = target: LIMK1 (human) (UniProt P53667)
[11] = target: RPS6KA6 KD1 KD2 (human) (UniProt Q9UK32)
[12] = target: MAP3K5 (human) (UniProt Q99683)
Chain of MAP3K5 (human) (Q99683 whole entry, looked up): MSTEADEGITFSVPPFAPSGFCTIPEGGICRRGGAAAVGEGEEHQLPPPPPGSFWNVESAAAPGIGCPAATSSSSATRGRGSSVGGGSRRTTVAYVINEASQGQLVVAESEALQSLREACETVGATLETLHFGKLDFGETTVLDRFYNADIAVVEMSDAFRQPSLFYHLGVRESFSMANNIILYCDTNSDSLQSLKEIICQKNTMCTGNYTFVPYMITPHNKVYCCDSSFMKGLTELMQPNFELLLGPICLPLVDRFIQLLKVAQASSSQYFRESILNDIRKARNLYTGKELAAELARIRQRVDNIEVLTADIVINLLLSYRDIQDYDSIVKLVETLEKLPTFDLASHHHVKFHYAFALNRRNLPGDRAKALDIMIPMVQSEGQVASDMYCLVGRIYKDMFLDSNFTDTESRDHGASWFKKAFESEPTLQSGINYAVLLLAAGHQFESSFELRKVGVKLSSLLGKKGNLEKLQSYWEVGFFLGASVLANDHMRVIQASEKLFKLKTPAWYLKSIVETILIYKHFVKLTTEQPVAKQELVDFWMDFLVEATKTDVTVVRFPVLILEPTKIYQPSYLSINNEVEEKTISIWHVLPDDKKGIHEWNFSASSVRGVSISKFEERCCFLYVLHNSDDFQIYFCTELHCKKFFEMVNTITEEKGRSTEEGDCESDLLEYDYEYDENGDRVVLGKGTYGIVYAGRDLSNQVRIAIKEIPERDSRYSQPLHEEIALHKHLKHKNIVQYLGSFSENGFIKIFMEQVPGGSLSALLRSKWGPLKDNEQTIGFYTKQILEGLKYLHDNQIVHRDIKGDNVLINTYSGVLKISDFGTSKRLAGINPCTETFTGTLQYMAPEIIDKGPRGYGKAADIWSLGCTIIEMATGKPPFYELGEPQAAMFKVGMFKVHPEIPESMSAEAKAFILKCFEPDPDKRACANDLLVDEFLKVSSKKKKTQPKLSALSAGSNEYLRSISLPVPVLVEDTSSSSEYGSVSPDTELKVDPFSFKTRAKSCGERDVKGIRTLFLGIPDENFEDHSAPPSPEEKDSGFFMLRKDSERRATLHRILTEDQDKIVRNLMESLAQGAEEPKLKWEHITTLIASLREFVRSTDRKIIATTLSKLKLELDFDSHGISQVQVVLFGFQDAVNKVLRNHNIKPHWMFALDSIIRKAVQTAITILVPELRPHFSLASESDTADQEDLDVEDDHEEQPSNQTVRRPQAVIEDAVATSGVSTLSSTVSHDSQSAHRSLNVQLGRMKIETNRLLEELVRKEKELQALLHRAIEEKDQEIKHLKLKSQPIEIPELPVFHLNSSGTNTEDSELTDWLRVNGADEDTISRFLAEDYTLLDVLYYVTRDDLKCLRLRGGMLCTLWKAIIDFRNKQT

[13] = target: CLK1 (human) (UniProt P49759)
[14] = target: LYN (human) (UniProt P07948)
[15] = target: TAOK1 (human) (UniProt Q7L7X3)
[16] = target: NEK6 (human) (UniProt Q9HC98)
[17] = target: PRKG1 (human) (UniProt Q13976)
Chain of PRKG1 (human) (Q13976 whole entry, looked up): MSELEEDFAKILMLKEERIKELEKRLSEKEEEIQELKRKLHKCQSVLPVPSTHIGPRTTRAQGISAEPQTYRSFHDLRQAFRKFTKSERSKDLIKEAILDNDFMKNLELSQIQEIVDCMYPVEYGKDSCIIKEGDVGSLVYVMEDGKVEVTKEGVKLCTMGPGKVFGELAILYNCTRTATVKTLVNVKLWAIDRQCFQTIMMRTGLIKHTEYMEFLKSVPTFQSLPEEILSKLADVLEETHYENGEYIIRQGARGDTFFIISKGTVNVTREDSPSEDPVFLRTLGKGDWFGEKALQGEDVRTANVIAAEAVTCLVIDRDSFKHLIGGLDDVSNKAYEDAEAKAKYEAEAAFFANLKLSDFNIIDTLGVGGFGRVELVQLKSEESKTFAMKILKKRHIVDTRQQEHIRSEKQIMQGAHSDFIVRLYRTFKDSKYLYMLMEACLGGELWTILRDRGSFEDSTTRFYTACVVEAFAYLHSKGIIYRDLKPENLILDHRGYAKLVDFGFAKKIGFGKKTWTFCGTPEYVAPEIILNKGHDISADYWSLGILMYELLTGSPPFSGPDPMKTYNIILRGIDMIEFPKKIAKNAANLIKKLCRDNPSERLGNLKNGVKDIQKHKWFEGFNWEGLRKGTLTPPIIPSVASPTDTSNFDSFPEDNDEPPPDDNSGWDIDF

[18] = target: TGFBR1 (human) (UniProt P36897)
[19] = target: PTK2B (human) (UniProt Q14289)
[20] = target: CHUK (human) (UniProt O15111)
Chain of CHUK (human) (O15111 whole entry, looked up): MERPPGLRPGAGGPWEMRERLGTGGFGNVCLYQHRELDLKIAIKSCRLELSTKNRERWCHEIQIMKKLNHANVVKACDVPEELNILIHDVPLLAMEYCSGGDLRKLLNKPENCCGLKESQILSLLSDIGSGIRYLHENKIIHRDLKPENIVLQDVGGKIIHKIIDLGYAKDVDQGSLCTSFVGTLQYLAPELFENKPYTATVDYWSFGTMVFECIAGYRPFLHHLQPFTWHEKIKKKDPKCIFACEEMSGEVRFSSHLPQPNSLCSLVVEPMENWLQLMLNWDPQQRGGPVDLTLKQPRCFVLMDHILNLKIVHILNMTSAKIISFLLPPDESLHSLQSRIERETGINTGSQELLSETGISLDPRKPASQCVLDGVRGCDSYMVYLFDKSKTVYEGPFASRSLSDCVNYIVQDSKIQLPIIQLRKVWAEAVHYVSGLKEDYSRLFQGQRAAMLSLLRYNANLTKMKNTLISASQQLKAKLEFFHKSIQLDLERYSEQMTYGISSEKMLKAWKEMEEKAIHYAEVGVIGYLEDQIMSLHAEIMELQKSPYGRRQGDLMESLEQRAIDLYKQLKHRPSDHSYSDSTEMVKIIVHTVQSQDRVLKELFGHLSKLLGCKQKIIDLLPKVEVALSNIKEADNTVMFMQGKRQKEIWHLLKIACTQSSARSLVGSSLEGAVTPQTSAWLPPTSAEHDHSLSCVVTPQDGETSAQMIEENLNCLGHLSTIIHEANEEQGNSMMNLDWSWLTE

[21] = target: PHKG1 (human) (UniProt Q16816)
[22] = target: INSRR (human) (UniProt P14616)
Chain of INSRR (human) (P14616 whole entry, looked up): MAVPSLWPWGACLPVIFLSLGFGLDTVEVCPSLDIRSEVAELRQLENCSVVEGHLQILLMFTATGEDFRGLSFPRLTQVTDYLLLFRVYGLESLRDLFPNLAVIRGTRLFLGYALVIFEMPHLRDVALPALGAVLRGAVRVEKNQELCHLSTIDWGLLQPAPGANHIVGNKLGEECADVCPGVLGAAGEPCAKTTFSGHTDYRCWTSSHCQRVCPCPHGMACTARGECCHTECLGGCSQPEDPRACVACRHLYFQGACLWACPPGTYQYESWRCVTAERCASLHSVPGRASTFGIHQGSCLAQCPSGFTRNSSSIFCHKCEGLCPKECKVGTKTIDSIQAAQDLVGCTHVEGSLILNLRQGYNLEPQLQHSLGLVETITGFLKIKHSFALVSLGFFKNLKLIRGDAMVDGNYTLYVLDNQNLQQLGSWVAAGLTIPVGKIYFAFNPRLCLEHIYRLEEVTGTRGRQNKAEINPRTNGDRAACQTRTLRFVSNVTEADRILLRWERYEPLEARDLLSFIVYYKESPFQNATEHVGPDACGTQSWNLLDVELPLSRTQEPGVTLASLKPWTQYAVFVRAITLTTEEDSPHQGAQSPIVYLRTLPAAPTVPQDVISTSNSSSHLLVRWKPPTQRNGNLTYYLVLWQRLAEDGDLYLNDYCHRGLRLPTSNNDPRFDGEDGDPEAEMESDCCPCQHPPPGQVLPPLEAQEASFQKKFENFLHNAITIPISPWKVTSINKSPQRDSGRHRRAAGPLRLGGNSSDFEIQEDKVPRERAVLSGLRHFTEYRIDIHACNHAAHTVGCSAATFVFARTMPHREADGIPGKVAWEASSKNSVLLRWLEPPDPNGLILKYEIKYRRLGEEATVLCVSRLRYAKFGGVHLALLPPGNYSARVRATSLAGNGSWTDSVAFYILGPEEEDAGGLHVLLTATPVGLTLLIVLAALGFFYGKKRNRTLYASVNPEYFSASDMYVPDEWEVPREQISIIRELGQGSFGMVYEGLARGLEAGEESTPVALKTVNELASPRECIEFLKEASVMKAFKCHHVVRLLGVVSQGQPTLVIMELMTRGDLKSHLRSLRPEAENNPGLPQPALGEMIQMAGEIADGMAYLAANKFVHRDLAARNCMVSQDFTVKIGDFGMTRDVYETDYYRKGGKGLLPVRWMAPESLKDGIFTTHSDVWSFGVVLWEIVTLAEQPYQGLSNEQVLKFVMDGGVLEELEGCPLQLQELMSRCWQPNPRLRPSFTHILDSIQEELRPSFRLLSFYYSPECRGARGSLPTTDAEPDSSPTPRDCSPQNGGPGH

[23] = target: MAP4K5 (human) (UniProt Q9Y4K4)
[24] = target: AKT3 (human) (UniProt Q9Y243)
[25] = target: RPS6KA5 KD2 (human) (UniProt O75582)
[26] = target: CLK3 (human) (UniProt P49761)
[27] = target: CSNK1G1 (human) (UniProt Q9HCP0)
[28] = target: PAK3 (human) (UniProt O75914)
Chain of PAK3 (human) (O75914 whole entry, looked up): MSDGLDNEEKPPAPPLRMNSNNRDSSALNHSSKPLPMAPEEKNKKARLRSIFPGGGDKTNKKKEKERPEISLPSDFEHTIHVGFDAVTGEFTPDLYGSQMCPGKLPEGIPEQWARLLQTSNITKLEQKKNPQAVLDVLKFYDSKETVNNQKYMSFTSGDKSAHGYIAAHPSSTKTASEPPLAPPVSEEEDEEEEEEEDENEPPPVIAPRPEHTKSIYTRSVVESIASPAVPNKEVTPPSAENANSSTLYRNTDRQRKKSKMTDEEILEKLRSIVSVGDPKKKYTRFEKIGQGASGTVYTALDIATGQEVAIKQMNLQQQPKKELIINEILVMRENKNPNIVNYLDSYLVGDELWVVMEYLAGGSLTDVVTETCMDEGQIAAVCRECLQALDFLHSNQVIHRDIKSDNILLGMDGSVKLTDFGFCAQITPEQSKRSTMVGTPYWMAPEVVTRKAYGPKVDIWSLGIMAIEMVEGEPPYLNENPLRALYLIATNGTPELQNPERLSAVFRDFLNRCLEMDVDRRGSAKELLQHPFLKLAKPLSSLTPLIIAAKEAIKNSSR

[29] = target: NEK2 (human) (UniProt P51955)
Chain of NEK2 (human) (P51955 whole entry, looked up): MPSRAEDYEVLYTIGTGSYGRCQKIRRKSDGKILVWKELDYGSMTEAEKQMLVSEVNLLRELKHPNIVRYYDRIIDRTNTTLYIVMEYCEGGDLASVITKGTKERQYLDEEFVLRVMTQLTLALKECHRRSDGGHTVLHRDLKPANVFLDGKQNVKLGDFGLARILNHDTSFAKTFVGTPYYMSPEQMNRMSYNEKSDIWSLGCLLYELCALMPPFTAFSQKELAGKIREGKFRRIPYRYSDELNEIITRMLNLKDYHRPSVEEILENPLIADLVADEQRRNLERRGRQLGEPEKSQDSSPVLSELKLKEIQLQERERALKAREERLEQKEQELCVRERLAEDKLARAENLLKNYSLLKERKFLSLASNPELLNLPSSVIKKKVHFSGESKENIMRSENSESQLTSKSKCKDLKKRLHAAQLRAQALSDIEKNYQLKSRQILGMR

[30] = target: EPHB1 (human) (UniProt P54762)
[31] = target: ULK1 (human) (UniProt O75385)
[32] = target: ULK2 (human) (UniProt Q8IYT8)
[33] = target: TEC (human) (UniProt P42680)
[34] = target: MLTK (human) (UniProt Q9NYL2)
[35] = target: VRK1 (human) (UniProt Q99986)
[36] = target: JAK1 JH1 catalytic (human) (UniProt P23458)
[37] = target: MARK3 (human) (UniProt P27448)
[38] = target: JAK2 JH1 JH2 (human) (UniProt O60674)
[39] = target: EPHB4 (human) (UniProt P54760)
[40] = target: HCK (human) (UniProt P08631)
[41] = target: MAPK8 (human) (UniProt P45983)
[42] = target: DYRK2 (human) (UniProt Q92630)

SMILES: C#Cc1cccc(Nc2ncnc3cc(OCCOC)c(OCCOC)cc23)c1
- residual activity [1]: 108%
- residual activity [2]: 48.6%
- residual activity [3]: 95.6%
- residual activity [4]: 102%
- residual activity [5]: 101%
- residual activity [6]: 52.8%
- residual activity [7]: 96%
- residual activity [8]: 91.8%
- residual activity [9]: 93.4%
- residual activity [10]: 90.4%
- residual activity [11]: 99.1%
- residual activity [12]: 102%
- residual activity [13]: 107%
- residual activity [14]: 72.5% and 75.4%
- residual activity [15]: 98.3%
- residual activity [16]: 89.1%
- residual activity [17]: 85.6% and 93.5%
- residual activity [18]: 99.1%
- residual activity [19]: 97.6%
- residual activity [20]: 94.2%
- residual activity [21]: 93.2%
- residual activity [22]: 111%
- residual activity [23]: 95.6%
- residual activity [24]: 74.6%
- residual activity [25]: 96.8%
- residual activity [26]: 108%
- residual activity [27]: 104%
- residual activity [28]: 106%
- residual activity [29]: 100%
- residual activity [30]: 100%
- residual activity [31]: 113%
- residual activity [32]: 98.7%
- residual activity [33]: 96.2%
- residual activity [34]: 92.2%
- residual activity [35]: 103%
- residual activity [36]: 91.2%
- residual activity [37]: 96.4%

SMILES: O=C1Nc2cc(Br)ccc2/C1=C1/Nc2ccccc2/C1=N\O
- residual activity [1]: 92.1%
- residual activity [2]: 0.0602%
- residual activity [38]: 93.8%
- residual activity [3]: 25.2%
- residual activity [4]: 95.3%
- residual activity [5]: 114%
- residual activity [6]: 102%
- residual activity [7]: 4.98%
- residual activity [8]: 95.3%
- residual activity [9]: 91.9%
- residual activity [10]: 51.7%
- residual activity [11]: 43.1%
- residual activity [12]: 91.6%
- residual activity [13]: 93.1%
- residual activity [14]: 14.7% and 5.98%
- residual activity [15]: 98.5%
- residual activity [16]: 99.9%
- residual activity [17]: 89% and 93.6%
- residual activity [18]: 99.8%
- residual activity [19]: 56.7%
- residual activity [20]: 104%
- residual activity [21]: 41.8%
- residual activity [22]: 81%
- residual activity [23]: 36.5%
- residual activity [24]: 89.4%
- residual activity [39]: 78.5%
- residual activity [25]: 82.6%
- residual activity [26]: 71.2%
- residual activity [27]: 87.6%
- residual activity [28]: 99.7%
- residual activity [40]: 13.3%
- residual activity [29]: 95.5%
- residual activity [30]: 72.3%
- residual activity [31]: 95.3%
- residual activity [41]: 98.7%
- residual activity [32]: 94%
- residual activity [33]: 104%
- residual activity [34]: 69%
- residual activity [35]: 98%
- residual activity [36]: 76.2%
- residual activity [37]: 67%

SMILES: O=C(NC(NC(=S)Nc1ccc(F)c([N+](=O)[O-])c1)C(Cl)(Cl)Cl)C(c1ccccc1)c1ccccc1 (centres undefined)
- residual activity [1]: 98.9%
- residual activity [2]: 103%
- residual activity [38]: 99.9%
- residual activity [3]: 105%
- residual activity [4]: 94.4%
- residual activity [5]: 98.8%
- residual activity [6]: 94.8%
- residual activity [7]: 108%
- residual activity [8]: 118%
- residual activity [9]: 93.5%
- residual activity [10]: 94.5%
- residual activity [11]: 94.7%
- residual activity [12]: 97.1%
- residual activity [13]: 106%
- residual activity [14]: 103% and 116%
- residual activity [15]: 104%
- residual activity [16]: 109%
- residual activity [17]: 100% and 109%
- residual activity [18]: 92.6%
- residual activity [19]: 102%
- residual activity [20]: 91.5%
- residual activity [21]: 104%
- residual activity [22]: 93.7%
- residual activity [23]: 91%
- residual activity [24]: 106%
- residual activity [39]: 101%
- residual activity [25]: 113%
- residual activity [26]: 124%
- residual activity [27]: 83.3%
- residual activity [28]: 91.9%
- residual activity [40]: 107%
- residual activity [29]: 112%
- residual activity [30]: 109%
- residual activity [31]: 99.1%
- residual activity [41]: 82.1%
- residual activity [33]: 201%
- residual activity [42]: 102%
- residual activity [34]: 98.6%
- residual activity [35]: 96.7%
- residual activity [36]: 106%
- residual activity [37]: 104%
